Measurements: publication PMC9405102, “Targeted Modification and Structure-Activity Study of GL-29, an Analogue of the Antimicrobial Peptide Palustrin-2ISb” (Antibiotics, 2022)
Read-outs that look alike come from different tables or passages of the source. Where no end group is shown, it is not given here.

Key:
[1] = system: E. faecalis (NCTC 12697); type: cell-based, Enterococcus faecalis
Procedure: (§1) The MBIC and MBEC assays were performed to measure the inhibition and eradication of bacterial biofilm in the presence of different concentrations of peptides. Gram-positive bacteria were inoculated in Luria–Bertani (LB) broth at 37 °C overnight whereas Gram-negative bacteria were inoculated in tryptic soy broth (TSB), and then sub-cultured until reaching the logarithmic growth phase by measuring the OD values at a wavelength of 550nm. For the MBIC assay, 99 µL of diluted bacterial suspension (5 × 10^5 CFU/mL) was mixed with 1 µL of prepared peptide solutions in the wells of a round-bottomed 96-well plate, achieving the final concentrations from 512 to 1 µM, and then incubated at 37 °C for 24 h in a shaking incubator at 200 revolutions per minute (rpm). After this, the plate was washed twice by PBS and fixed with methanol for 30 min. For MBEC assay, 100 µL of diluted bacterial suspension (5 × 10^5 CFU/mL) was seeded into a round-bottomed 96-well plate and incubated at 37 °C for 24 h in a shaking incubator at 200 rpm to obtain mature biofilm. After this, plates were washed twice by PBS and incubated with different concentrations of peptide solution from 512 to 1 µM at 37 °C for 24 h. Afterwards, the plate was washed twice with PBS and fixed with methanol for 30 min. Then, both MBIC and MBEC plates were stained by 130 μL of 0.1% (g/v) crystal violet solutions for 30 min and washed with PBS until no apparent staining was observed. Evaporating crystal violet stains were dissolved by 33% (v/v) acetic acid, and the absorbance values were measured by a Synergy HT Microplate Reader (BioTek, Minneapolis, MN, USA) set to 595 nm. The minimum concentration that inhibited the formation of biofilm was defined when compared to the negative control group, as the MBIC. The minimum concentration that eradicated the biofilm was defined, when compared to the negative control group, as the MBEC. The biofilm assays were performed in triplicate.

[2] = system: E. coli (ATCC CRM 8739); type: cell-based, Escherichia coli
Procedure: as §1

[3] = system: MRSA (ATCC CRM 12493); type: cell-based, methicillin-resistant S. aureus
Procedure: (§2) The antimicrobial activity of the peptides was determined through the minimum inhibitory concentrations (MICs) and the minimum bactericidal concentration (MBCs) using the broth-dilution method in a 96-well plate, as described in the previous study. Six bacteria, including the Gram-positive bacteria, S. aureus (ATCC CRM 6538), MRSA (ATCC CRM 12493) and E. faecalis (NCTC 12697), the Gram-negative bacteria, E. coli (ATCC CRM 8739), K. pneumoniae (ATCC CRM 43816) and P. aeruginosa (ATCC CRM 9027), the yeast, C. albicans (ATCC CRM 10231) and clinical isolates, S. aureus (B042 V2E1 A), MRSA (B038 V1S1 A), E. coli (ATCC BAA-2340) and K. pneumoniae (ATCC BAA-1705) were used in these assays to evaluate the antimicrobial potency of the two peptides by determining their MICs and MBCs. All bacteria were cultured in MHB and the yeast, C. albicans was cultured in YPD broth overnight. Then, the microorganisms were sub-cultured and diluted to the final concentration of 2 × 10^5 CFU/mL to 5 × 10^5 CFU/mL. The Norfloxacin and amphotericin B were used as positive controls for the bacteria and yeast, respectively. The assay was repeated three times, with five replicates at each time.

[4] = system: MRSA (B038 V1S1 A); type: cell-based, methicillin-resistant S. aureus
Procedure: as §2

[5] = system: C. albicans (ATCC CRM 10231); type: cell-based, Candida albicans
Procedure: as §2

[6] = system: P. aeruginosa (ATCC CRM 9027); type: cell-based, Pseudomonas aeruginosa
Procedure: as §2

[7] = system: K. pneumoniae (ATCC BAA-1705); type: cell-based, Klebsiella pneumoniae
Procedure: as §2

[8] = system: K. pneumoniae (ATCC CRM 43816); type: cell-based, Klebsiella pneumoniae
Procedure: as §2

[9] = system: P. aeruginosa (ATCC CRM 9027); type: cell-based, Pseudomonas aeruginosa; remark: listed apart in the source
Procedure: as §1

[10] = system: S. aureus (ATCC CRM 6538); type: cell-based, Staphylococcus aureus
Procedure: as §1

[11] = system: K. pneumoniae (ATCC CRM 43816); type: cell-based, Klebsiella pneumoniae; remark: listed apart in the source
Procedure: as §1

[12] = system: MRSA (ATCC CRM 12493); type: cell-based, methicillin-resistant S. aureus; remark: listed apart in the source
Procedure: as §1

[13] = system: E. faecalis (NCTC 12697); type: cell-based, Enterococcus faecalis; remark: listed apart in the source
Procedure: as §2

[14] = system: E. coli (ATCC BAA-2340); type: cell-based, Escherichia coli
Procedure: as §2

[15] = system: E. coli (ATCC CRM 8739); type: cell-based, Escherichia coli; remark: listed apart in the source
Procedure: as §2

[16] = system: S. aureus (ATCC CRM 6538); type: cell-based, Staphylococcus aureus; remark: listed apart in the source
Procedure: as §2

[17] = system: S. aureus (B042 V2E1 A); type: cell-based, Staphylococcus aureus
Procedure: as §2

[18] = clinical isolated strain MRSA (B038 V1S1 A)
[19] = KPC-producing resistant strain K. pneumoniae (ATCC BAA-1705)
[20] = KPC-producing resistant strain E. coli (ATCC BAA-2340)
[21] = clinical isolated strain S. aureus (B042 V2E1 A)

LFVNVLDKIR-NH2 [LF-10, LFVNVLDKIR-NH2]
>512 µM: MBEC ([1]; NCTC 12697, 24 h) | MBIC ([1]; NCTC 12697, 24 h) | MBEC ([2]; ATCC CRM 8739, 24 h) | MBIC ([2]; ATCC CRM 8739, 24 h) | MBC ([3]; ATCC CRM 12493) | MIC ([3]; ATCC CRM 12493) | MBC ([4]; B038 V1S1 A) | MIC ([4]; B038 V1S1 A) | MBC ([5]; ATCC CRM 10231) | MIC ([5]; ATCC CRM 10231) | MBC ([6]; ATCC CRM 9027) | MIC ([6]; ATCC CRM 9027) | MBC ([7]; ATCC BAA-1705) | MIC ([7]; ATCC BAA-1705) | MBC ([8]; ATCC CRM 43816) | MIC ([8]; ATCC CRM 43816) | MBEC ([9]; ATCC CRM 9027, 24 h) | MBIC ([9]; ATCC CRM 9027, 24 h) | MBEC ([10]; ATCC CRM 6538, 24 h) | MBIC ([10]; ATCC CRM 6538, 24 h) | MBEC ([11]; ATCC CRM 43816, 24 h) | MBIC ([11]; ATCC CRM 43816, 24 h) | MBEC ([12]; ATCC CRM 12493, 24 h) | MBIC ([12]; ATCC CRM 12493, 24 h) | MBC ([13]; NCTC 12697) | MIC ([13]; NCTC 12697) | MBC ([14]; ATCC BAA-2340) | MIC ([14]; ATCC BAA-2340) | MBC ([15]; ATCC CRM 8739) | MIC ([15]; ATCC CRM 8739) | MBC ([16]; ATCC CRM 6538) | MIC ([16]; ATCC CRM 6538) | MBC ([17]; B042 V2E1 A) | MIC ([17]; B042 V2E1 A)

VNVLDKIR-NH2 [VN-8, VNVLDKIR-NH2]
>512 µM: MBEC ([1]; biofilm eradication, E. faecalis (NCTC 12697)) | MBIC ([1]; biofilm formation, E. faecalis (NCTC 12697)) | MBEC ([2]; biofilm eradication, E. coli (ATCC CRM 8739)) | MBIC ([2]; biofilm formation, E. coli (ATCC CRM 8739)) | MBC ([3]; MRSA (ATCC CRM 12493)) | MIC ([3]; MRSA (ATCC CRM 12493)) | MBC [4, 18] | MIC [4, 18] | MBC ([5]; C. albicans (ATCC CRM 10231)) | MIC ([5]; C. albicans (ATCC CRM 10231)) | MBC ([6]; P. aeruginosa (ATCC CRM 9027)) | MIC ([6]; P. aeruginosa (ATCC CRM 9027)) | MBC [7, 19] | MIC [7, 19] | MBC ([8]; K. pneumoniae (ATCC CRM 43816)) | MIC ([8]; K. pneumoniae (ATCC CRM 43816)) | MBEC ([9]; biofilm eradication, P. aeruginosa (ATCC CRM 9027)) | MBIC ([9]; biofilm formation, P. aeruginosa (ATCC CRM 9027)) | MBEC ([10]; biofilm eradication, S. aureus (ATCC CRM 6538)) | MBIC ([10]; biofilm formation, S. aureus (ATCC CRM 6538)) | MBEC ([11]; biofilm eradication, K. pneumoniae (ATCC CRM 43816)) | MBIC ([11]; biofilm formation, K. pneumoniae (ATCC CRM 43816)) | MBEC ([12]; biofilm eradication, MRSA (ATCC CRM 12493)) | MBIC ([12]; biofilm formation, MRSA (ATCC CRM 12493)) | MBC ([13]; E. faecalis (NCTC 12697)) | MIC ([13]; E. faecalis (NCTC 12697)) | MBC [14, 20] | MIC [14, 20] | MBC ([15]; E. coli (ATCC CRM 8739)) | MIC ([15]; E. coli (ATCC CRM 8739)) | MBC ([16]; S. aureus (ATCC CRM 6538)) | MIC ([16]; S. aureus (ATCC CRM 6538)) | MBC [17, 21] | MIC [17, 21]
